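96-well plates; 48 h exposure; 5 concentrations. Endpoints by linear interpolation between flanking doses. Not reached: highest tested concentration assigned. GI50: concentration for 50% inhibition of growth. TGI marks complete inhibition of growth.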
How the values were obtained:
Assay in all cases: NCI tumour cell line growth inhibition, 48 h
SK-MEL-2 melanoma = tested on: SK-MEL-2 melanoma
SW-620 colon = tested on: SW-620 colon
UACC-62 melanoma = tested on: UACC-62 melanoma
OVCAR-4 ovarian = tested on: OVCAR-4 ovarian
MCF7 breast = tested on: MCF7 breast
IGROV1 ovarian = tested on: IGROV1 ovarian
MDA-MB-231 breast = tested on: MDA-MB-231 breast
BT-549 breast = tested on: BT-549 breast
SF-539 CNS = tested on: SF-539 CNS
CAKI-1 renal = tested on: CAKI-1 renal
NCI-H522 lung = tested on: NCI-H522 lung
MOLT-4 leukemia = tested on: MOLT-4 leukemia
SK-OV-3 ovarian = tested on: SK-OV-3 ovarian
A498 renal = tested on: A498 renal
HS 578T breast = tested on: HS 578T breast
T-47D breast = tested on: T-47D breast
HCT-15 colon = tested on: HCT-15 colon
PC-3 prostate = tested on: PC-3 prostate
SF-268 CNS = tested on: SF-268 CNS
NCI/ADR-RES ovarian = tested on: NCI/ADR-RES ovarian
NCI-H23 lung = tested on: NCI-H23 lung
HL-60(TB) leukemia = tested on: HL-60(TB) leukemia
HT29 colon = tested on: HT29 colon
CCRF-CEM leukemia = tested on: CCRF-CEM leukemia
SNB-19 CNS = tested on: SNB-19 CNS
SK-MEL-28 melanoma = tested on: SK-MEL-28 melanoma
SF-295 CNS = tested on: SF-295 CNS
DU-145 prostate = tested on: DU-145 prostate
SN12C renal = tested on: SN12C renal
HCC-2998 colon = tested on: HCC-2998 colon
UO-31 renal = tested on: UO-31 renal
NCI-H226 lung = tested on: NCI-H226 lung
TK-10 renal = tested on: TK-10 renal
RXF 393 renal = tested on: RXF 393 renal
COLO 205 colon = tested on: COLO 205 colon
U251 CNS = tested on: U251 CNS
MDA-MB-435 = tested on: MDA-MB-435
K-562 leukemia = tested on: K-562 leukemia
LOX IMVI melanoma = tested on: LOX IMVI melanoma
HCT-116 colon = tested on: HCT-116 colon
M14 melanoma = tested on: M14 melanoma
OVCAR-5 ovarian = tested on: OVCAR-5 ovarian
HOP-62 NSCLC = tested on: HOP-62 NSCLC
OVCAR-8 ovarian = tested on: OVCAR-8 ovarian
RPMI-8226 leukemia = tested on: RPMI-8226 leukemia
SNB-75 CNS = tested on: SNB-75 CNS
NCI-H460 lung = tested on: NCI-H460 lung
ACHN renal = tested on: ACHN renal
SK-MEL-5 melanoma = tested on: SK-MEL-5 melanoma
786-0 renal = tested on: 786-0 renal
MALME-3M melanoma = tested on: MALME-3M melanoma
KM12 colon = tested on: KM12 colon
OVCAR-3 ovarian = tested on: OVCAR-3 ovarian
A549 NSCLC = tested on: A549 NSCLC
UACC-257 melanoma = tested on: UACC-257 melanoma

With `CN=c1ccc2nc3ccc(N)cc3sc-2c1` the GI50 (SK-MEL-2 melanoma) was 11 µM, the TGI (SK-MEL-2 melanoma) was 30.9 µM and the GI50 (SW-620 colon) was 2.89 µM. For the same molecule, the TGI (SW-620 colon) was 20.2 µM, the GI50 (UACC-62 melanoma) was 2.61 µM and the TGI (UACC-62 melanoma) was 14 µM. For the same molecule, the GI50 (OVCAR-4 ovarian) was 0.689 µM, the TGI (OVCAR-4 ovarian) was 7.07 µM and the GI50 (MCF7 breast) was 1.63 µM. It also gave a TGI (MCF7 breast) of 6.5 µM, a GI50 (IGROV1 ovarian) of 2.54 µM and a TGI (IGROV1 ovarian) of 6.24 µM. For the same molecule, the GI50 (MDA-MB-231 breast) was 0.7 µM, the TGI (MDA-MB-231 breast) was 14.3 µM and the GI50 (BT-549 breast) was 11.5 µM. It also gave a TGI (BT-549 breast) of 44.4 µM, a GI50 (SF-539 CNS) of 1.75 µM and a TGI (SF-539 CNS) of 5.86 µM. The GI50 (CAKI-1 renal) was 2.36 µM, the TGI (CAKI-1 renal) was 12.4 µM and the GI50 (NCI-H522 lung) was 1.33 µM. The TGI (NCI-H522 lung) was 7.97 µM, the GI50 (MOLT-4 leukemia) was 1.77 µM and the TGI (MOLT-4 leukemia) was 6.86 µM. It also gave a GI50 (SK-OV-3 ovarian) of 5.03 µM, a TGI (SK-OV-3 ovarian) of 24.7 µM and a GI50 (A498 renal) of 79.5 µM. The TGI (A498 renal) was > 100 µM, the GI50 (HS 578T breast) was 17 µM and the TGI (HS 578T breast) was 59.6 µM. The GI50 (T-47D breast) was 1.69 µM, the TGI (T-47D breast) was 13.2 µM and the GI50 (HCT-15 colon) was 1.62 µM. It also gave a TGI (HCT-15 colon) of 68 µM, a GI50 (PC-3 prostate) of 0.276 µM and a TGI (PC-3 prostate) of 8.85 µM. For the same molecule, the GI50 (SF-268 CNS) was 2.84 µM, the TGI (SF-268 CNS) was 17.1 µM and the GI50 (NCI/ADR-RES ovarian) was 1.6 µM. It also gave a TGI (NCI/ADR-RES ovarian) of 8.44 µM, a GI50 (NCI-H23 lung) of 1.83 µM and a TGI (NCI-H23 lung) of 12.9 µM. It also gave a GI50 (HL-60(TB) leukemia) of 0.354 µM, a TGI (HL-60(TB) leukemia) of 1.67 µM and a GI50 (HT29 colon) of 8.44 µM. For the same molecule, the TGI (HT29 colon) was 34.3 µM, the GI50 (CCRF-CEM leukemia) was 0.584 µM and the TGI (CCRF-CEM leukemia) was 17.9 µM. For the same molecule, the GI50 (SNB-19 CNS) was 3.25 µM, the TGI (SNB-19 CNS) was > 100 µM and the GI50 (SK-MEL-28 melanoma) was 7.36 µM. The TGI (SK-MEL-28 melanoma) was 24.1 µM, the GI50 (SF-295 CNS) was 0.962 µM and the TGI (SF-295 CNS) was 3.79 µM. It also gave a GI50 (DU-145 prostate) of 10.7 µM, a TGI (DU-145 prostate) of 23.5 µM and a GI50 (SN12C renal) of 2.47 µM. The TGI (SN12C renal) was 12.5 µM, the GI50 (HCC-2998 colon) was 4.32 µM and the TGI (HCC-2998 colon) was 38.6 µM. For the same molecule, the GI50 (UO-31 renal) was 4.56 µM, the TGI (UO-31 renal) was 21.2 µM and the GI50 (NCI-H226 lung) was 15.2 µM. For the same molecule, the TGI (NCI-H226 lung) was 41.4 µM, the GI50 (TK-10 renal) was 6.96 µM and the TGI (TK-10 renal) was 32.6 µM. It also gave a GI50 (RXF 393 renal) of 8.29 µM, a TGI (RXF 393 renal) of 23.9 µM and a GI50 (COLO 205 colon) of 2.57 µM. The TGI (COLO 205 colon) was 12.2 µM, the GI50 (U251 CNS) was 1.36 µM and the TGI (U251 CNS) was 10.2 µM. The GI50 (MDA-MB-435) was 1.42 µM, the TGI (MDA-MB-435) was 3.24 µM and the GI50 (K-562 leukemia) was 1.12 µM. The TGI (K-562 leukemia) was 16.7 µM, the GI50 (LOX IMVI melanoma) was 1.87 µM and the TGI (LOX IMVI melanoma) was 9.58 µM. It also gave a GI50 (HCT-116 colon) of 1.29 µM, a TGI (HCT-116 colon) of 10.3 µM and a GI50 (M14 melanoma) of 2.04 µM. For the same molecule, the TGI (M14 melanoma) was 10.8 µM, the GI50 (OVCAR-5 ovarian) was 9.54 µM and the TGI (OVCAR-5 ovarian) was 23.7 µM. For the same molecule, the GI50 (HOP-62 NSCLC) was 6.8 µM, the TGI (HOP-62 NSCLC) was 27.3 µM and the GI50 (OVCAR-8 ovarian) was 1.45 µM. For the same molecule, the TGI (OVCAR-8 ovarian) was 10.3 µM, the GI50 (RPMI-8226 leukemia) was 0.32 µM and the TGI (RPMI-8226 leukemia) was 18 µM. For the same molecule, the GI50 (SNB-75 CNS) was 10.8 µM, the TGI (SNB-75 CNS) was 28.7 µM and the GI50 (NCI-H460 lung) was 3.86 µM. The TGI (NCI-H460 lung) was > 100 µM, the GI50 (ACHN renal) was 2.25 µM and the TGI (ACHN renal) was 17.4 µM. The GI50 (SK-MEL-5 melanoma) was 0.448 µM, the TGI (SK-MEL-5 melanoma) was 1.88 µM and the GI50 (786-0 renal) was 10.5 µM. For the same molecule, the TGI (786-0 renal) was 25.9 µM, the GI50 (MALME-3M melanoma) was 1.09 µM and the TGI (MALME-3M melanoma) was 3.45 µM. The GI50 (KM12 colon) was 2.07 µM, the TGI (KM12 colon) was 20.1 µM and the GI50 (OVCAR-3 ovarian) was 1.02 µM. For the same molecule, the TGI (OVCAR-3 ovarian) was 13.8 µM, the GI50 (A549 NSCLC) was 0.714 µM and the TGI (A549 NSCLC) was 13.3 µM. For the same molecule, the GI50 (UACC-257 melanoma) was 1.18 µM and the TGI (UACC-257 melanoma) was 5.04 µM.
